The target in experiment [1] is T1, Serine/threonine-protein kinase D1 (Homo sapiens) (UniProt Q15139).
T1 sequence (whole entry): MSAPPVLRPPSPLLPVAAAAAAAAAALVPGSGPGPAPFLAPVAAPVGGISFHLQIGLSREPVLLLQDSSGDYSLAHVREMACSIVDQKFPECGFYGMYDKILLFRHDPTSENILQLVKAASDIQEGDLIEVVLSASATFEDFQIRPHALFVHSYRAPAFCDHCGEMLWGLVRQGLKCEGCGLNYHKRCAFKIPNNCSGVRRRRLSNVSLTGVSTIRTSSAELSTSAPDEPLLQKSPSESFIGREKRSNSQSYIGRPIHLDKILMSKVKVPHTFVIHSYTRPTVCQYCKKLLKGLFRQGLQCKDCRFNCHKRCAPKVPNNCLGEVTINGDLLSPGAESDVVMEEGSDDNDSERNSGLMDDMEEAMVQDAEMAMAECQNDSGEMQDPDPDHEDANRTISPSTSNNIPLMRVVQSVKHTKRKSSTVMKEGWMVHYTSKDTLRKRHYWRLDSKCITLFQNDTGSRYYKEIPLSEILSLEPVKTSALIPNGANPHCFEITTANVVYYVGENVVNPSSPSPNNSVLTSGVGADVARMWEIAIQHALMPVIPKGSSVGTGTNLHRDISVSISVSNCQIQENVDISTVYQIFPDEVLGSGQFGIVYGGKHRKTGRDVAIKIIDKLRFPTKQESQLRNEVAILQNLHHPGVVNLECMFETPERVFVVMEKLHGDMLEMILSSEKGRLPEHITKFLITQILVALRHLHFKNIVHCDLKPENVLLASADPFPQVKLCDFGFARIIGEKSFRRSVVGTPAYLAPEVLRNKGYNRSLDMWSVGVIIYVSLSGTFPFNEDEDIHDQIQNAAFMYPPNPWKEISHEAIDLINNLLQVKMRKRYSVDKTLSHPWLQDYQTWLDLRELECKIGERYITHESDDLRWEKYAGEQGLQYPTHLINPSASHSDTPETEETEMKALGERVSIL
Nature of the experiment: Inhibition of human full length PKD1 expressed in baculovirus assessed as substrate phosphorylation using fluorescence-labelled peptides as substrate at 0.2 uM after 90 mins by microfluidic peptide phosphorylation assay.

The target of experiment [2] is T2, Serine/threonine-protein kinase D3 (Homo sapiens) (UniProt O94806).
T2 sequence (whole entry): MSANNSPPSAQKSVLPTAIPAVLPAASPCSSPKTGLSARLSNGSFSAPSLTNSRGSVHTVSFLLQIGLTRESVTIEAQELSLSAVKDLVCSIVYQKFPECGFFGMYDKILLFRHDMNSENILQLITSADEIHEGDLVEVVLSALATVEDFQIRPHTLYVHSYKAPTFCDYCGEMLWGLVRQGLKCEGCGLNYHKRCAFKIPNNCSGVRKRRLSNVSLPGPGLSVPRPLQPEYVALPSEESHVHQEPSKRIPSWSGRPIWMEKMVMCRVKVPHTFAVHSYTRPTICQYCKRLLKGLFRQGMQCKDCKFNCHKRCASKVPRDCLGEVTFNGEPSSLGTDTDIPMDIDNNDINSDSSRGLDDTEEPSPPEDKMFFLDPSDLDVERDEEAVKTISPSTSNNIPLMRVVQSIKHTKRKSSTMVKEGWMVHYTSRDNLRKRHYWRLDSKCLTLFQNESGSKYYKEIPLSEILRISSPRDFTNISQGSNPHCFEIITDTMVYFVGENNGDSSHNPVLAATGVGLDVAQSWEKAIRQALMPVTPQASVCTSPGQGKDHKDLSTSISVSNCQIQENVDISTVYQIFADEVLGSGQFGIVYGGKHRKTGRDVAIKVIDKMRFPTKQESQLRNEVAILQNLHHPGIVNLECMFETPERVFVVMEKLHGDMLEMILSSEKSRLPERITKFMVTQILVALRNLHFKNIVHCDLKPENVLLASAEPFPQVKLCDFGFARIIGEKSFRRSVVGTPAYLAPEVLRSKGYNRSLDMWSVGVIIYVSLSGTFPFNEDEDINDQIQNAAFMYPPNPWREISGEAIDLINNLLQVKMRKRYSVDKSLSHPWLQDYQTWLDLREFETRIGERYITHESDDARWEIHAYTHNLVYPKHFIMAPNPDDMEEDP
In words: Inhibition of human full length PKD3 expressed in baculovirus assessed as substrate phosphorylation using fluorescence-labelled peptides as substrate at 0.2 uM after 90 mins by microfluidic peptide phosphorylation assay.

Experiment [3] has as its target T3, Aurora kinase C (Homo sapiens) (UniProt Q9UQB9).
T3 sequence (whole entry): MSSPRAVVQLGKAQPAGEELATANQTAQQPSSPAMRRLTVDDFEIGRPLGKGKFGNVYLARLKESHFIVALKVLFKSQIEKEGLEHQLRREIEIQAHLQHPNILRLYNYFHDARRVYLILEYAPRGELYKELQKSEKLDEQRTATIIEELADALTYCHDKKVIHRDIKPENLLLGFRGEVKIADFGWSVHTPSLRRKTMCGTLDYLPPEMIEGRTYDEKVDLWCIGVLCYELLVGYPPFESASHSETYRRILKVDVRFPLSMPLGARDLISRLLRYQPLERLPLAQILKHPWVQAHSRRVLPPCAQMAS
In words: Inhibition of human full length AurC expressed in baculovirus assessed as substrate phosphorylation using fluorescence-labelled peptides as substrate at 8 uM after 90 mins by microfluidic peptide phosphorylation assay.

Experiment [4] concerns the target T4, Mitogen-activated protein kinase 12 (Homo sapiens) (UniProt P53778).
T4 sequence (whole entry): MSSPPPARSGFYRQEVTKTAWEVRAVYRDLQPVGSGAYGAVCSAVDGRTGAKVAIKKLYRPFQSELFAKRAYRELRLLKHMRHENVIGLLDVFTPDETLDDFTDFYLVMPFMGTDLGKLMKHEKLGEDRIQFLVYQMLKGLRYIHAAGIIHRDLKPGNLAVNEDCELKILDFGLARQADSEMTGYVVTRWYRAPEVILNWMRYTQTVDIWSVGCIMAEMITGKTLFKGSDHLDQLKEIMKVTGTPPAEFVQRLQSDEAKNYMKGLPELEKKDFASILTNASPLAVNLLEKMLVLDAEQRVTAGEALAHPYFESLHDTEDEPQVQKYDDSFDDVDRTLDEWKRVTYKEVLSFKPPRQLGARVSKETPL
In words: Inhibition of human full length p38 gamma expressed in Escherichia coli cell assessed as substrate phosphorylation using fluorescence-labelled peptides as substrate at 8 uM after 90 mins by microfluidic peptide phosphorylation assay.

The target of experiment [5] is Tyrosine-protein kinase Fer (Homo sapiens) (UniProt P16591). In words: Inhibition of human FER catalytic domain expressed in baculovirus assessed as substrate phosphorylation using fluorescence-labelled peptides as substrate at 1000 uM after 90 mins by microfluidic peptide phosphorylation assay.
Tyrosine-protein kinase Fer (Homo sapiens), sequence (P16591 whole entry, looked up, the tested form may be a part): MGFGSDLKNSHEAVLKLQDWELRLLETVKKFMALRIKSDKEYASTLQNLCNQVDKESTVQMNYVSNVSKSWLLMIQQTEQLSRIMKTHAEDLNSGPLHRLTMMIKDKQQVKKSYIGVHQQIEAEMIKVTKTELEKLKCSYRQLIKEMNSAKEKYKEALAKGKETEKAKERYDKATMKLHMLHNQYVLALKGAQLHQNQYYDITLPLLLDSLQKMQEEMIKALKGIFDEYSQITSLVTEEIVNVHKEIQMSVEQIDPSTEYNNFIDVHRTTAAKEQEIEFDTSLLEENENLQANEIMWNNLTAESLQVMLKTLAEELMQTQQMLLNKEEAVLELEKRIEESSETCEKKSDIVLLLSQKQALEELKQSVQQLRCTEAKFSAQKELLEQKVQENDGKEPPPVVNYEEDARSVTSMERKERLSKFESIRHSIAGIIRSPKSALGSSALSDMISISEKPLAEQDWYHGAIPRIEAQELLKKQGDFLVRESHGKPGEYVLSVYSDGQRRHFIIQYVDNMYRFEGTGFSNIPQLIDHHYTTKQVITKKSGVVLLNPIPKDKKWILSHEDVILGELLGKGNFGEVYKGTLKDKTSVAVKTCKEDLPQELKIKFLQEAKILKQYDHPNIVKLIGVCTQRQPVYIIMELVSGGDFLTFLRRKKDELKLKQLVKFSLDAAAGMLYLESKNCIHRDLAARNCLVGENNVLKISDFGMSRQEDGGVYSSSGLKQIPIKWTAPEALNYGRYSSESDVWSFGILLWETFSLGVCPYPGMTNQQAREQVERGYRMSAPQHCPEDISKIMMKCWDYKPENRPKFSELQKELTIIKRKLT
The target of experiment [6] is Ribosomal protein S6 kinase alpha-2 (Homo sapiens) (UniProt Q15349). In words: Inhibition of human full length RSK3 expressed in baculovirus assessed as substrate phosphorylation using fluorescence-labelled peptides as substrate at 0.06 uM after 90 mins by microfluidic peptide phosphorylation assay.
Ribosomal protein S6 kinase alpha-2 (Homo sapiens), sequence (Q15349 whole entry, the tested form may be a part): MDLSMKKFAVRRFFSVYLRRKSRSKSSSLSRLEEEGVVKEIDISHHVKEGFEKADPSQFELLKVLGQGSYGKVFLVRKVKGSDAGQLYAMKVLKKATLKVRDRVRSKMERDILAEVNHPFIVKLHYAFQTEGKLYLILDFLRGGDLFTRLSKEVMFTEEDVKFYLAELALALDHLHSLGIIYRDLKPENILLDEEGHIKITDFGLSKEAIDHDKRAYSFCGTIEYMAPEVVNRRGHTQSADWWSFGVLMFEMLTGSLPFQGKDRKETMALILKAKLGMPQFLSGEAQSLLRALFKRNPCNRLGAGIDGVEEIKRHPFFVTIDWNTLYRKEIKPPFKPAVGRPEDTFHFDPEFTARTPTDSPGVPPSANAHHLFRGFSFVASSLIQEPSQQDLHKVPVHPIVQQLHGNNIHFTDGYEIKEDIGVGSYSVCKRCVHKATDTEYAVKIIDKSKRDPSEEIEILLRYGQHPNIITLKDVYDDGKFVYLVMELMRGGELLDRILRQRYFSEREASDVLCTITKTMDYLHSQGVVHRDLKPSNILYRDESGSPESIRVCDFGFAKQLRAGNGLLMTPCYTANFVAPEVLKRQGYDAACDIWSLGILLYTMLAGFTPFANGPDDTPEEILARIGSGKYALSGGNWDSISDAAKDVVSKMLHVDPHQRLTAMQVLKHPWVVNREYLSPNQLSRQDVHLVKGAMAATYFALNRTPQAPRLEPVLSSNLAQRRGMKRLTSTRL
The target of experiment [7] is Fibroblast growth factor receptor 2 (Homo sapiens) (UniProt P21802). Nature of the experiment: Inhibition of human FGFR2 catalytic domain expressed in baculovirus assessed as substrate phosphorylation using fluorescence-labelled peptides as substrate at 0.06 uM after 90 mins by microfluidic peptide phosphorylation assay.
Fibroblast growth factor receptor 2 (Homo sapiens), sequence (P21802 22-821 limits assumed): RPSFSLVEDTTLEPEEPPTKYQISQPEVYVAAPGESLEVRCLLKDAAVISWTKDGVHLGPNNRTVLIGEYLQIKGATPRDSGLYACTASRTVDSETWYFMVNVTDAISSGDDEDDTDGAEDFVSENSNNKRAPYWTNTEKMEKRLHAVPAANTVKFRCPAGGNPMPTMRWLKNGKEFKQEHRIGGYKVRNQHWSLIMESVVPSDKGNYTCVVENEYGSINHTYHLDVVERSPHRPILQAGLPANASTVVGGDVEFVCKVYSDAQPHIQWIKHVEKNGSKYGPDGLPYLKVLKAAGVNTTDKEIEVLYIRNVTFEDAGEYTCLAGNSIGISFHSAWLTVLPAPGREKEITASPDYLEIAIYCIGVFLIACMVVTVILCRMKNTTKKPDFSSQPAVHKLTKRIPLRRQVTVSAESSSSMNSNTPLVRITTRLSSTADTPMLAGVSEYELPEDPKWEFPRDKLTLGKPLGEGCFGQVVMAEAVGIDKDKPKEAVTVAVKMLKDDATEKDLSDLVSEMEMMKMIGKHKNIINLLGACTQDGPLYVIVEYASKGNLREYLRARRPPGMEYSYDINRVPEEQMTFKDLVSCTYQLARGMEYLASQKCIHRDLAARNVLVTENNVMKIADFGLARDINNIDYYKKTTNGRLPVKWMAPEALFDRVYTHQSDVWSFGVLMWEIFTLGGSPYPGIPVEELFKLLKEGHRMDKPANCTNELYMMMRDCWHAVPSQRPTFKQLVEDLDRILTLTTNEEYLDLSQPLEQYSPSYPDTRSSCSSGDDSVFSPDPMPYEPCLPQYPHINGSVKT

Inhibition data for 4 compounds are collected here from ChEMBL document CHEMBL3132769, “Fragment growing to retain or alter the selectivity of anchored kinase hinge-binding fragments” (Medchemcomm, 2014).

The term inhibition denotes the change of the read-out against control, counted positive when it falls. As for `Clc1ccc(C2(c3ccc(-c4ncnc5[nH]cnc45)cc3)CCNCC2)cc1`, the inhibition in experiment [1] amounted to 8%; in experiment [2], 12.5%.

Turning to `NCC1CCN(c2ncnc3[nH]ccc23)CC1`, the results for the inhibition in experiment [3] and in experiment [4] were 34% and 5%, respectively. Consider `c1cnc2[nH]ccc2c1`, for which, in experiment [5], the inhibition was determined as 18%. As for `NC1(Cc2ccc(Cl)cc2)CCN(c2ncnc3[nH]ccc23)CC1`, the inhibition in experiment [6] and in experiment [7] was 0% in each case.
